The text below walks through data of patent publication US10626095B2, “Cyanotriazole compounds” (OTSUKA PHARMACEUTICAL CO., LTD., priority 2013, dated 2020).

In test [1] the test system is Zucker Diabetic Fatty (ZDF) rat. As to the kind of experiment: Meal load test in type 2 diabetic model rats (postprandial blood glucose). On the set-up: unit not given here. The conditions noted are these: ZDF rats fasted overnight, oral 10 mg/kg in 5% Arabia gum, blood glucose one hour after meal loading (50 kcal/kg). Type of test: in vivo. The procedure:
Effects on Type 2 Diabetes: Meal Load Test
To evaluate whether a cyanotriazol compound improves diabetes or not, especially related to postprandial blood glucose, meal load test was performed using one of type 2 diabetic model rats, the Zucker Diabetic Fatty (ZDF) rat (Charles river, Japan). About 24 animals fasted overnight (17 h) were taken blood samples from the tail veins, and measured blood glucose levels (Pre BG) and body weights (BW). Proper animals were selected and divided into […] (n=6) based on the Pre BG and BW using SAS Statistical Analysis System (SAS institute Japan Ltd. Release 9.1). The compounds to be tested (10 or 30 mg/kg body weight in 5% Arabia gum) or Arabia gum solution only (vehicle group) were orally administrated via gavage two hours prior to or just before meal loading (50 kcal/kg body weight). The meal suspension was prepared by mixing purified AIN-93G (Norsan Corp, Yokohama, Japan) and distilled water (2:3, w/v). One-hour after meal loading, blood glucose (BG1h) of each animal was measured. Effectiveness of each compound was shown by ? BG1h (BG1h difference between compound group and vehicle group). Although a set of 24 animals was used several times (from 13 weeks to 21 weeks of age), at least a one-week interval was placed from one to another test.

The subject of test [2] is NaCT-CHO (CHO cells stably expressing human NaCT). As to the kind of experiment: Assay of the citric acid cycle activation ([1,5-14C]-citric acid, diffusion of [14C]-CO2). It counts as cell-based. As to conditions: 1 hour incubation at 37° C. with [1,5-14C]-citric acid. Put shortly: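 NaCT-CHO cells (pME-CHO empty-vector cells for non-specific counts) were incubated 1 h at 37 °C in Na+-containing HEPES-Tris pH 7.4 with compound plus an equal volume of 0.4 mM [1,5-14C]-citric acid solution. Residual cell radioactivity was counted, [14C]-CO2 diffusion was taken as (Total−R)/(Total−NS)×100%, and EC50 was derived by regression.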

pEC50: −log10 of the molar value.

Consider `N#Cc1[nH]nnc1-c1cccc(/C=C/c2ccc(F)c(C(F)(F)F)c2)c1` [Example 663, 5-{3-[(E)-2-(4-fluoro-3-trifluoromethyl-phenyl)-vinyl]-phenyl}-3H-[1,2,3]triazole-4-carbonitrile], for which the “BG1h (BG1h difference between compound group and vehicle group)” value in test [1] is given as −149.5. Besides, the negative logarithm of the EC50 (pEC50) (in general, the EC50 on a negative log10 scale, so that one unit is a factor of ten) in test [2] was 5.90.

Turning to `N#Cc1[nH]nnc1-c1cc2ccc(-c3ccc(F)cc3)cc2o1` [Example 147, 5-[6-(4-fluoro-phenyl)-benzofuran-2-yl]-3H-[1,2,3]triazole-4-carbonitrile], in test [1], the “BG1h (BG1h difference between compound group and vehicle group)” value was −80.5. Also, the pEC50 in test [2] is 5.78.

As for `N#Cc1[nH]nnc1-c1cccc(COc2cc(C(F)(F)F)ccn2)c1` [Example 55, 5-[3-(4-trifluoromethyl-pyridin-2-yloxymethyl)-phenyl]-3H-[1,2,3]triazole-4-carbonitrile], the “BG1h (BG1h difference between compound group and vehicle group)” value in test [1] is −110.2. The compound further showed a pEC50 in test [2] of 6.19.

In the case of `N#Cc1[nH]nnc1-c1ccc(-c2nccc(C(F)(F)F)n2)cc1` [Example 70, 5-[4-(4-trifluoromethyl-pyrimidin-2-yl)-phenyl]-3H-[1,2,3]triazole-4-carbonitrile], the “BG1h (BG1h difference between compound group and vehicle group)” value in test [1] is on record as −137.2. This compound showed a pEC50 in test [2] of 6.29.

Turning to `N#Cc1[nH]nnc1-c1cccc(OCc2cc(C(F)(F)F)ccc2C(F)(F)F)c1` [Example 60, 5-[3-(2,5-bis-trifluoromethyl-benzyloxy)-phenyl]-3H-[1,2,3]triazole-4-carbonitrile], the “BG1h (BG1h difference between compound group and vehicle group)” value in test [1] was −132.0. Moreover, in test [2], the pEC50 is 6.52.

Consider `Cc1sc(-c2ccc(F)c(Cl)c2)nc1-c1nn[nH]c1C#N` [Example 90, 5-[2-(3-chloro-4-fluoro-phenyl)-5-methyl-thiazol-4-yl]-3H-[1,2,3]triazole-4-carbonitrile], for which, in test [1], the “BG1h (BG1h difference between compound group and vehicle group)” value is −119.0. For the same compound, the negative-log EC50 (pEC50) in test [2] is 6.25.

Take `Cc1cc(-c2nccc(C(F)(F)F)n2)cc(-c2nn[nH]c2C#N)c1` [Example 22, 5-[3-methyl-5-(4-trifluoromethyl-pyrimidin-2-yl)-phenyl]-3H-[1,2,3]triazole-4-carbonitrile]: in test [1], the “BG1h (BG1h difference between compound group and vehicle group)” value is reported as −108.5. Moreover, the pEC50 in test [2] is 6.19.

For the compound `N#Cc1[nH]nnc1-c1csc(-c2cccc(OC(F)(F)F)c2)n1` [Example 79, 5-[2-(3-trifluoromethoxy-phenyl)-thiazol-4-yl]-3H-[1,2,3]triazole-4-carbonitrile], the “BG1h (BG1h difference between compound group and vehicle group)” value in test [1] is −51.0. In test [2], this compound gave a negative logarithm of the EC50 (pEC50) of 6.21.

`N#Cc1[nH]nnc1-c1cc(Cl)cc(-c2ccc(OC(F)(F)F)c(F)c2)c1` [Example 276, 5-(5-chloro-3′-fluoro-4′-trifluoromethoxy-biphenyl-3-yl)-3H-[1,2,3]triazole-4-carbonitrile]: in test [1], the “BG1h (BG1h difference between compound group and vehicle group)” value is recorded as −71.4. In test [2], this compound had a pEC50 of 6.07.

As to `N#Cc1[nH]nnc1-c1csc(-c2ccc(Cl)cc2)n1` [Example 75, 5-[2-(4-chloro-phenyl)-thiazol-4-yl]-3H-[1,2,3]triazole-4-carbonitrile], the “BG1h (BG1h difference between compound group and vehicle group)” value in test [1] is −83.2. The same compound showed a pEC50 in test [2] of 6.06.

As for `N#Cc1[nH]nnc1-c1cc(/C=C/c2cccc(C(F)(F)F)n2)cc(C(F)(F)F)c1` [Example 51, 5-{3-trifluoromethyl-5-[(E)-2-(6-trifluoromethyl-pyridin-2-yl)-vinyl]-phenyl}-3H-[1,2,3]triazole-4-carbonitrile], in test [1], the “BG1h (BG1h difference between compound group and vehicle group)” value is given as −79.0. The compound further showed a pEC50 in test [2] of 6.12.

For `N#Cc1[nH]nnc1-c1cccc(/C=C/c2nccc(C(F)(F)F)n2)c1` [Example 52, 5-{3-[(E)-2-(4-trifluoromethyl-pyrimidin-2-yl)-vinyl]-phenyl}-3H-[1,2,3]triazole-4-carbonitrile], in test [1], the “BG1h (BG1h difference between compound group and vehicle group)” value is reported as −120.4. For the same compound, the pEC50 in test [2] is 6.24.

Take `CCc1sc(-c2ccc(C(F)(F)F)cn2)nc1-c1nn[nH]c1C#N` [Example 100]: the “BG1h (BG1h difference between compound group and vehicle group)” value in test [1] is recorded as −100.5. The pEC50 in test [2] was 6.27.

For the compound `N#Cc1[nH]nnc1-c1cc(Cl)cc(/C=C/c2cc(C(F)(F)F)cc(C(F)(F)F)c2)c1` [Example 610, 5-{3-[(E)-2-(3,5-bis-trifluoromethyl-phenyl)-vinyl]-5-chloro-phenyl}-3H-[1,2,3]triazole-4-carbonitrile], the “BG1h (BG1h difference between compound group and vehicle group)” value in test [1] is −86.8. In addition, the negative-log EC50 (pEC50) in test [2] is 5.76.

For `N#Cc1[nH]nnc1-c1cccc(/C=C/c2cc(F)cc(C(F)(F)F)c2)c1` [Example 659, 5-{3-[(E)-2-(3-fluoro-5-trifluoromethyl-phenyl)-vinyl]-phenyl}-3H-[1,2,3]triazole-4-carbonitrile], the “BG1h (BG1h difference between compound group and vehicle group)” value in test [1] is reported as −161.2. The compound further had a pEC50 in test [2] of 6.09.

`N#Cc1[nH]nnc1-c1ccc2ccn(CCCC(F)(F)F)c2c1` [Example 146]: in test [1], the “BG1h (BG1h difference between compound group and vehicle group)” value was −94.9. In addition, in test [2], the negative logarithm of the EC50 (pEC50) was 6.39.

Take `N#Cc1[nH]nnc1-c1cccc(/C=C/c2ccc(C(F)(F)F)cc2)c1` [Example 617, 5-{3-[(E)-2-(4-trifluoromethyl-phenyl)-vinyl]-phenyl}-3H-[1,2,3]triazole-4-carbonitrile]: in test [1], the “BG1h (BG1h difference between compound group and vehicle group)” value was −113.3. The compound further showed a pEC50 in test [2] of 6.32.

Take `N#Cc1[nH]nnc1-c1cc(OC(F)(F)F)cc(-c2ccc(OC(F)(F)F)c(F)c2)c1` [Example 298, 5-(3′-fluoro-5,4′-bis-trifluoromethoxy-biphenyl-3-yl)-3H-[1,2,3]triazole-4-carbonitrile]: the “BG1h (BG1h difference between compound group and vehicle group)” value in test [1] was −62.8. Further, the pEC50 in test [2] was 6.13.

`N#Cc1[nH]nnc1-c1cc(/C=C/c2ccc(F)cc2)cc(OC(F)(F)F)c1` [Example 639, 5-{3-[(E)-2-(4-fluoro-phenyl)-vinyl]-5-trifluoromethoxy-phenyl}-3H-[1,2,3]triazole-4-carbonitrile]: the “BG1h (BG1h difference between compound group and vehicle group)” value in test [1] is reported as −58.5. This compound had a pEC50 in test [2] of 5.92.

Consider `N#Cc1[nH]nnc1-c1cc(N2CCCCC2)nc(-c2ccccc2)n1` [Example 1672, 5-(2-phenyl-6-(piperidin-1-yl)-pyrimidin-4-yl)-3H-[1,2,3]triazole-4-carbonitrile], for which, in test [1], the “BG1h (BG1h difference between compound group and vehicle group)” value is on record as −94.8. In test [2], this compound gave a pEC50 of 5.89.

For `N#Cc1[nH]nnc1-c1cc(Cl)cc(/C=C/c2cccc(C(F)(F)F)c2)c1` [Example 47, 5-{3-chloro-5-[(E)-2-(3-trifluoromethyl-phenyl)-vinyl]-phenyl}-3H-[1,2,3]triazole-4-carbonitrile], the “BG1h (BG1h difference between compound group and vehicle group)” value in test [1] is reported as −89.7. This compound also gave a negative-log EC50 (pEC50) in test [2] of 5.97.

With `N#Cc1[nH]nnc1-c1cc(Cl)cc(/C=C/c2ccc(F)cc2)c1` [Example 623, 5-{3-chloro-5-[(E)-2-(4-fluoro-phenyl)-vinyl]-phenyl}-3H-[1,2,3]triazole-4-carbonitrile], the “BG1h (BG1h difference between compound group and vehicle group)” value in test [1] is −111.2. The compound also gave a pEC50 in test [2] of 6.16.

`N#Cc1ccc(/C=C/c2cccc(-c3nn[nH]c3C#N)c2)cc1` [Example 41, 5-{3-[(E)-2-(4-cyano-phenyl)-vinyl]-phenyl}-3H-[1,2,3]triazole-4-carbonitrile]: in test [1], the “BG1h (BG1h difference between compound group and vehicle group)” value is −158.0. Further, the negative-log EC50 (pEC50) in test [2] was 6.41.
